We go through 47 molecules from ChEMBL document CHEMBL3301464, “MMV Malaria Box anti-babesial screening”.

The nature of assay [1]: (§1) MMV: Anti-babesial activity assay. Parasite pRBCs at 1% parasitemia were cultivated in 100 ul with 96-well plates at 2.5% and 5% hematocrits. The parasites were cultivated in triplicate for 4 days without replacement of the medium for each concentration of the compound. In kind it is functional, Babesia bovis.
The nature of assay [2]: as §1. In kind it is functional, Babesia bigemina.
A short description of assay [3]: as §1. In kind it is functional, Babesia equi.
Assay [4] in a line: as §1. The assay is classed as functional, Babesia caballi.

pIC50: −log10 of the molar value.

Take `CCOc1cc(Cl)c(C(C)NC(=O)c2cccc(OC)c2)cc1OCC` (stereo not drawn): the pIC50 in assay [1] was 4.60; in assay [2], 5.14; in assay [3], 5.61; in assay [4] it was 4.73.

Turning to `c1ccc(/C2=N/c3ccccc3/N=C(/c3ccccc3)c3ccccc32)cc1`, the negative-log IC50 (pIC50) in assay [1] was 4.75; in assay [2] it was 5.00; in assay [3] it was 4.82; in assay [4] it was 5.31.

For `CCOc1cc(Br)c(C(C)NC(=O)c2cccc(OC)c2)cc1OCC` (stereo not drawn), the negative-log IC50 (pIC50) is 5.00 in assay [1], 4.60 in assay [2], 4.91 in assay [3] and 4.88 in assay [4].

Consider `Cc1cccc(-n2ncc3c(O)nc(-n4nc(C)cc4NC(=O)c4cc5ccccc5o4)nc32)c1`, for which the negative logarithm of the IC50 (pIC50) in assay [1] was 5.35; in assay [2], 6.39; in assay [3], 6.33; in assay [4], 7.14.

For the molecule `Cc1nc2ccccc2c(O)c1CC=C(Cl)Cl`, the negative logarithm of the IC50 (pIC50) was 5.37 in assay [1], 4.97 in assay [2], 4.82 in assay [3] and 5.52 in assay [4].

For `Oc1ccccc1CN1CCC2(CCCN(Cc3ccccc3F)C2)C1` (stereo not drawn), the negative logarithm of the IC50 (pIC50) in assay [1] was 4.84; in assay [2] it was 6.14; in assay [3], 7.00; in assay [4], 5.30.

As for `COc1cccc(O)c1CN1CCC2(CCCN(Cc3ccc(F)cc3)C2)C1` (stereo not drawn), the pIC50 in assay [1] was 5.61; in assay [2] it was 5.00; in assay [3] it was 5.34; in assay [4] it was 5.51.

`O=C(CCc1ccco1)NC1CCN(CC2(c3ccc(Cl)cc3)CCC2)CC1`: the negative logarithm of the IC50 (pIC50) in assay [1] was 5.30; in assay [2], 5.73; in assay [3], 5.47; in assay [4], less than 4.60.

As to `O=c1c2c([nH]c3ccccc13)CCCC2`, the negative-log IC50 (pIC50) was 5.61 in assay [1], 5.23 in assay [2], 5.37 in assay [3] and 5.39 in assay [4].

As to `CCOC(=O)C1(Cc2ccccc2)CCN(Cc2cccc(OC)c2O)CC1`, the pIC50 was 5.92 in assay [1], 4.88 in assay [2], 4.82 in assay [3] and 5.86 in assay [4].

In the case of `COc1ccc(N2CCN(C(CNC(=O)CC(C)(C)C)c3ccc4c(c3)OCO4)CC2)cc1` (stereo not drawn), the pIC50 is 6.10 in assay [1], 7.00 in assay [2], 6.29 in assay [3] and 4.79 in assay [4].

As to `CCOc1ccc(/C=C/c2nc(=O)c3ccccc3o2)cc1`, the pIC50 is 6.00 in assay [1], 5.52 in assay [2], 4.90 in assay [3] and 4.71 in assay [4].

With `OC(CNCC1CCCO1)Cn1c2ccc(Cl)cc2c2cc(Cl)ccc21` (stereo not drawn), the pIC50 was 4.68 in assay [1], 6.10 in assay [2], 4.92 in assay [3] and 5.00 in assay [4].

Regarding `Cc1cc(N2CCCC2)nc(Nc2ccc(NC(=O)CCc3ccccc3)cc2)n1`, the pIC50 was 4.81 in assay [1], 4.87 in assay [2], 5.52 in assay [3] and 5.45 in assay [4].

As to `O=C(NC1CCN(Cc2ccccc2)CC1)c1cc(-c2ccncc2)nc2ccc(Cl)cc12`, the pIC50 in assay [1] is 5.40; in assay [2], 5.14; in assay [3] it was 6.41; in assay [4], 7.12.

As for `Cc1ccc(-c2nc3ccccc3o2)cc1NCc1cc(Cc2ccccc2)ccc1O`, the negative-log IC50 (pIC50) in assay [1] was 5.15; in assay [2], 6.00; in assay [3], 5.01; in assay [4], 5.98.

As to `COc1cccc(C(=O)Nc2ccc(-c3nc4ccccc4[nH]3)cc2)c1`, the pIC50 in assay [1] was 6.00; in assay [2] it was 5.32; in assay [3], 5.13; in assay [4], 5.31.

Consider `Cc1ccc(OCCCCCCNCCO)c(C)c1`, for which the pIC50 was 4.92 in assay [1], 5.01 in assay [2], 5.29 in assay [3] and 4.88 in assay [4].

For `COCCNCC(O)Cn1c2ccc(Cl)cc2c2cc(Cl)ccc21` (stereo not drawn), the pIC50 was less than 4.60 in assay [1], 5.73 in assay [2], 4.79 in assay [3] and 5.25 in assay [4].

Consider `Nc1nc(Nc2cccc(F)c2)nc2ccccc12`, for which the pIC50 in assay [1] is 6.14; in assay [2] it was 5.12; in assay [3], 6.10; in assay [4] it was 5.22.

Turning to `Cc1ccc(Nc2nc(N)c3ccccc3n2)cc1Cl`, the pIC50 was 5.20 in assay [1], 5.01 in assay [2], 4.78 in assay [3] and 5.00 in assay [4].

Turning to `CCCc1c(C)nc2ccccc2c1O`, the pIC50 in assay [1] was 4.81; in assay [2] it was 5.53; in assay [3] it was 5.62; in assay [4], 5.43.

As to `COc1cc(C(=O)Nc2nc3c(cc4c5c(cccc53)CC4)s2)cc(OC)c1OC`, the negative logarithm of the IC50 (pIC50) in assay [1] is 5.51; in assay [2] it was 5.09; in assay [3] it was 5.36; in assay [4], 5.30.

On to `Oc1c(CN2CCN(c3ccccc3F)CC2)cc(Br)c2cccnc12`, for which the pIC50 is 5.48 in assay [1], 5.34 in assay [2], 4.89 in assay [3] and 4.83 in assay [4].

Turning to `COc1ccccc1N1C(=N)SC(=Cc2ccc(OCc3ccccc3F)cc2)C1=O`, the negative-log IC50 (pIC50) in assay [1] is 4.73; in assay [2] it was 5.00; in assay [3], 4.79; in assay [4], 4.77.

For the molecule `OC1CCCCC1C1(NC(=S)Nc2ccccc2)CCCCC1` (stereo not drawn), the pIC50 in assay [1] is 5.85; in assay [2] it was 6.03; in assay [3] it was 5.29; in assay [4], 4.85.

With `CC1=C(CC(=O)c2cccc([N+](=O)[O-])c2)C(=O)c2ccccc2C1=O`, the pIC50 was 6.44 in assay [1], 6.31 in assay [2], 5.31 in assay [3] and 5.16 in assay [4].

Turning to `Clc1ccc2[nH]c3c(NCCCN4CCOCC4)ncnc3c2c1`, the pIC50 in assay [1] was 5.11; in assay [2], 5.96; in assay [3], 5.13; in assay [4], 6.00.

Regarding `COc1ccc(Br)cc1C1Nc2ccc3ccccc3c2C2=C1C(=O)CC(c1ccccc1)C2` (stereo not drawn), the negative logarithm of the IC50 (pIC50) in assay [1] was less than 4.60; in assay [2] it was 4.76; in assay [3], less than 4.60; in assay [4], 4.88.

On to `O=C(Nc1nc(-c2ccccn2)cs1)c1ccccc1Br`, for which the negative-log IC50 (pIC50) in assay [1] was 5.34; in assay [2], 6.00; in assay [3] it was 5.26; in assay [4], 6.00.

As to `COc1cccc(Nc2nc(N)c3ccccc3n2)c1`, the negative-log IC50 (pIC50) is 6.92 in assay [1], 7.24 in assay [2], 4.77 in assay [3] and 5.53 in assay [4].

Turning to `O=C(Nc1ccc(-c2nc3ccccc3[nH]2)cc1)c1ccc(Cl)c(Cl)c1`, the pIC50 was 4.73 in assay [1], 5.38 in assay [2], 5.20 in assay [3] and 5.41 in assay [4].

For the molecule `N#Cc1nc(Cc2cccc3ccccc23)oc1N1CCN(C(c2ccccc2)c2ccccc2)CC1`, the pIC50 is 4.79 in assay [1], 4.70 in assay [2], 4.92 in assay [3] and 5.29 in assay [4].

`O=C(Nc1ccc(F)c(Cl)c1)Nc1ccc(Cl)c(Cl)c1`: the pIC50 in assay [1] was 5.45; in assay [2], 5.47; in assay [3], 5.47; in assay [4], 5.42.

For the molecule `CCOc1ccc2nc(C)cc(Nc3ccc(Br)cc3)c2c1`, the pIC50 is 5.97 in assay [1], 6.22 in assay [2], 5.15 in assay [3] and 4.82 in assay [4].

As for `COc1cccc(Cn2c(Oc3ccccc3)nc3c2c(=O)n(C)c(=O)n3C)c1`, the negative logarithm of the IC50 (pIC50) was 4.99 in assay [1], 5.00 in assay [2], less than 4.60 in assay [3] and 5.24 in assay [4].

In the case of `Cc1ccc(NC(=O)Nc2cccc(Cl)c2)cc1F`, the pIC50 in assay [1] was 4.96; in assay [2], 5.00; in assay [3], 4.84; in assay [4], 7.13.

In the case of `CCCCc1ccc(NS(=O)(=O)c2cc3c4c(c2)CCN4C(=O)CC3)cc1`, the pIC50 in assay [1] was 4.60; in assay [2], 4.90; in assay [3], 6.24; in assay [4] it was 7.15.

As to `N=c1n(CCN2CCCCC2)c2ccccc2n1CC(O)c1cccc(Br)c1` (stereo not drawn), the negative-log IC50 (pIC50) is 5.42 in assay [1], 6.00 in assay [2], 5.80 in assay [3] and 5.31 in assay [4].

In the case of `Cc1cc(Nc2ccc(C)c(Cl)c2)n2nc(C(F)(F)F)nc2n1`, the negative-log IC50 (pIC50) in assay [1] is 4.82; in assay [2], 4.83; in assay [3] it was less than 4.60; in assay [4], 6.16.

With `CSC1=NC(=Nc2c(C)cccc2C)C2(CCC(C(C)(C)C)CC2)N1c1ccc(Cl)cc1` (stereo not drawn), the pIC50 is 4.74 in assay [1], 4.77 in assay [2], 4.94 in assay [3] and 4.82 in assay [4].

With `O=C(c1ccccc1F)N(Cc1ccc(Cl)cc1)c1ccccn1`, the pIC50 in assay [1] was 4.78; in assay [2] it was 5.38; in assay [3] it was 4.74; in assay [4], 5.22.

As to `COc1ccc(-c2nc(NC(=O)CS(=O)(=O)c3ccc(F)cc3)sc2C)cc1`, the negative-log IC50 (pIC50) is 4.75 in assay [1], 4.77 in assay [2], 4.87 in assay [3] and 4.84 in assay [4].

In the case of `Cc1ccc(S(=O)(=O)c2c(COC(=O)c3cccc(C)c3)c(-c3ccccc3)nn2C)cc1`, the negative logarithm of the IC50 (pIC50) in assay [1] was 7.17; in assay [2] it was 6.00; in assay [3], 4.90; in assay [4] it was 4.69.

`CCOc1c(Cl)cc(CNC(C)C(O)c2ccccc2)cc1OC` (stereo not drawn): the negative-log IC50 (pIC50) in assay [1] is 5.72; in assay [2], 5.14; in assay [3], 5.17; in assay [4], 4.92.

For the molecule `CCCCCCn1c(=N)n(CC(O)COc2cccc(C)c2)c2ccccc21` (stereo not drawn), the pIC50 in assay [1] was 7.08; in assay [2], 5.53; in assay [3], 5.43; in assay [4], 4.80.

As to `FC(F)(F)c1cccc(Nc2nc(-c3ccccc3)nc3ncccc23)c1`, the pIC50 in assay [1] is 5.17; in assay [2], 5.35; in assay [3], 4.80; in assay [4], 4.92.
